The text below walks through data of patent US4118561A, “7-(Substituted)-7H-pyrrolo[3,2-f]quinazoline-1,3-diamines” (priority 1977, dated 1978).

The subject of one assay is S. paratyphi 11737. The assay can be described thus: In vitro antibacterial activity (MIC), S. paratyphi 11737. Format: cell-based. Conditions: Salmonella enterica, 18 h.
The subject of a further assay is E. coli 9637. The assay can be described thus: In vitro antibacterial activity (MIC), E. coli 9637. As to conditions: Escherichia coli, 9637, 18 h.
The subject of a further assay is S. aureus Smith. The assay can be described thus: In vitro antibacterial activity (MIC), S. aureus Smith. As to conditions: Staphylococcus aureus, 18 h.
The next assay deals with S. aureus 53-180. The assay can be described thus: In vitro antibacterial activity (MIC), S. aureus 53-180. Conditions: Staphylococcus aureus, 53180, 18 h.
Another assay has as its system P. vulgaris 6896. The assay is described as follows: In vitro antibacterial activity (MIC), P. vulgaris 6896. As to conditions: Proteus vulgaris, 6896, 18 h.
A further assay deals with N. catarrhalis 8193. The assay is described as follows: In vitro antibacterial activity (MIC), N. catarrhalis 8193. Conditions: 18 h.
The test system of the next assay is K. pneumoniae 10031. The assay is described as follows: In vitro antibacterial activity (MIC), K. pneumoniae 10031. As to conditions: Klebsiella pneumoniae, 10031, 18 h.

Structures are written as SMILES. In brackets after ≈: the same amount, converted by molar mass.

With `Nc1nc(N)c2c(ccc3c2ccn3Cc2cccs2)n1` [Example 59], the MIC (as a rule, the smallest concentration in the dilution series that meets the test's criterion for growth inhibition) against S. paratyphi 11737 was determined as 0.244 µg/mL (≈ 0.826 µM); against E. coli 9637, 0.061 µg/mL (≈ 0.207 µM); with S. aureus Smith, 0.244 µg/mL (≈ 0.826 µM); in the assay on S. aureus 53-180, 0.061 µg/mL (≈ 0.207 µM); with P. vulgaris 6896, 0.244 µg/mL (≈ 0.826 µM); in the assay on N. catarrhalis 8193, 0.0019 µg/mL (≈ 0.00643 µM). This compound registered an MIC with K. pneumoniae 10031 of 0.061 µg/mL (≈ 0.207 µM).
As for `Nc1nc(N)c2c(ccc3c2ccn3Cc2ccc3ccccc3c2Br)n1` [Example 60], the MIC with S. paratyphi 11737 was greater than 250 µg/mL; in the assay with E. coli 9637, greater than 250 µg/mL; with S. aureus Smith, 31.3 µg/mL (≈ 74.8 µM); in the assay with S. aureus 53-180, 15.6 µg/mL (≈ 37.3 µM); with P. vulgaris 6896 it was greater than 250 µg/mL; in the assay with N. catarrhalis 8193 it was 0.488 µg/mL (≈ 1.17 µM). The compound further gave an MIC in the assay with K. pneumoniae 10031 of 15.6 µg/mL (≈ 37.3 µM).
In the case of `Cn1ccc2c3c(N)nc(N)nc3ccc21` [Example 65, 7-Methyl-7H-pyrrolo[3,2-f]quinazoline-1,3-diamine], the MIC was 3.9 µg/mL (≈ 18.3 µM) in the assay on S. paratyphi 11737; 0.976 µg/mL (≈ 4.58 µM) in the assay with E. coli 9637; 62.5 µg/mL (≈ 293 µM) against S. aureus Smith; 7.81 µg/mL (≈ 36.6 µM) against S. aureus 53-180; 1.95 µg/mL (≈ 9.14 µM) with P. vulgaris 6896; 0.031 µg/mL (≈ 0.145 µM) against N. catarrhalis 8193. The compound further registered an MIC in the assay with K. pneumoniae 10031 of 1.95 µg/mL (≈ 9.14 µM).
As to `Nc1nc(N)c2c(ccc3c2ccn3CC2CCCO2)n1` (stereo not shown) [Example 67, 7-[(Tetrahydro-2-furanyl)methyl]-7H-pyrrolo-[3,2-f]quinazoline-1,3-diamine], the MIC against S. paratyphi 11737 is 7.81 µg/mL (≈ 27.6 µM); with E. coli 9637, 1.95 µg/mL (≈ 6.88 µM); in the assay with S. aureus Smith it was 3.9 µg/mL (≈ 13.8 µM); in the assay with S. aureus 53-180, 0.976 µg/mL (≈ 3.44 µM); against P. vulgaris 6896, 3.9 µg/mL (≈ 13.8 µM); in the assay on N. catarrhalis 8193, 0.0038 µg/mL (≈ 0.0134 µM). This compound also came in with an MIC in the assay on K. pneumoniae 10031 of 0.488 µg/mL (≈ 1.72 µM).
As for `Nc1nc(N)c2c(ccc3c2ccn3Cc2ccc(C(=O)[O-])cc2)n1.[Na+]` [Example 68, 7-(4-Carboxybenzyl)-7H-pyrrolo[3,2-f]-quinazoline-1,3-diamine, sodium salt], the MIC with S. paratyphi 11737 is greater than 250 µg/mL; in the assay with E. coli 9637, greater than 250 µg/mL; in the assay on S. aureus Smith, 250 µg/mL; with S. aureus 53-180, 250 µg/mL; with P. vulgaris 6896 it was 250 µg/mL; against N. catarrhalis 8193 it was 62.5 µg/mL. In the assay on K. pneumoniae 10031, the minimum inhibitory concentration (MIC) is greater than 250 µg/mL.
As for `CCC(=O)c1ccc(-n2ccc3c4c(N)nc(N)nc4ccc32)cc1` [Example 72], the MIC in the assay with S. paratyphi 11737 is greater than 250 µg/mL; with E. coli 9637, 15.6 µg/mL (≈ 47.1 µM); in the assay on S. aureus Smith, 31.3 µg/mL (≈ 94.5 µM); against S. aureus 53-180, 7.81 µg/mL (≈ 23.6 µM); against P. vulgaris 6896, greater than 250 µg/mL; against N. catarrhalis 8193, 0.031 µg/mL (≈ 0.0935 µM). The same compound returned an MIC against K. pneumoniae 10031 of 31.3 µg/mL (≈ 94.5 µM).
Turning to `N#Cc1ccccc1-n1ccc2c3c(N)nc(N)nc3ccc21` [Example 73], the MIC was found to be 0.122 µg/mL (≈ 0.406 µM) in the assay on S. paratyphi 11737; 0.122 µg/mL (≈ 0.406 µM) in the assay on E. coli 9637; 0.031 µg/mL (≈ 0.103 µM) in the assay on S. aureus Smith; 0.0152 µg/mL (≈ 0.0506 µM) against S. aureus 53-180; 0.488 µg/mL (≈ 1.62 µM) against P. vulgaris 6896; 0.0038 µg/mL (≈ 0.0127 µM) against N. catarrhalis 8193. The compound further registered an MIC against K. pneumoniae 10031 of 0.0152 µg/mL (≈ 0.0506 µM).
Take `CS(=O)(=O)c1ccc(-n2ccc3c4c(N)nc(N)nc4ccc32)cc1` [Example 74]: the minimum inhibitory concentration (MIC) in the assay on S. paratyphi 11737 came out at 7.81 µg/mL (≈ 22.1 µM); with E. coli 9637, 0.976 µg/mL (≈ 2.76 µM); against S. aureus Smith it was 0.976 µg/mL (≈ 2.76 µM); with S. aureus 53-180, 0.976 µg/mL (≈ 2.76 µM); against P. vulgaris 6896, 15.6 µg/mL (≈ 44.1 µM); against N. catarrhalis 8193, 0.0152 µg/mL (≈ 0.043 µM). In the assay on K. pneumoniae 10031, this compound showed an MIC of 0.244 µg/mL (≈ 0.69 µM).
With `CCOC(=O)c1ccc(-n2ccc3c4c(N)nc(N)nc4ccc32)cc1` [Example 75], the minimal inhibitory concentration (MIC) in the assay on S. paratyphi 11737 was greater than 250 µg/mL; in the assay on E. coli 9637, greater than 250 µg/mL; with S. aureus Smith, 125 µg/mL (≈ 360 µM); against S. aureus 53-180, 7.81 µg/mL (≈ 22.5 µM); against P. vulgaris 6896 it was greater than 250 µg/mL; with N. catarrhalis 8193 it was 0.122 µg/mL (≈ 0.351 µM). The MIC in the assay with K. pneumoniae 10031 turned out to be 250 µg/mL (≈ 720 µM).
As for `Nc1nc(N)c2c(ccc3c2ccn3-c2ccc([N+](=O)[O-])cc2[N+](=O)[O-])n1` [Example 78], the minimal inhibitory concentration (MIC) with S. paratyphi 11737 was greater than 250 µg/mL; against E. coli 9637, 3.9 µg/mL (≈ 10.7 µM); with S. aureus Smith, 0.0076 µg/mL (≈ 0.0208 µM); against S. aureus 53-180, 0.0076 µg/mL (≈ 0.0208 µM); in the assay with P. vulgaris 6896, greater than 250 µg/mL; against N. catarrhalis 8193 it was 0.0019 µg/mL (≈ 0.0052 µM). Besides, the MIC in the assay with K. pneumoniae 10031 was 0.031 µg/mL (≈ 0.0849 µM).
Consider `N#Cc1cc([N+](=O)[O-])ccc1-n1ccc2c3c(N)nc(N)nc3ccc21` [Example 79], for which the MIC against S. paratyphi 11737 was greater than 250 µg/mL; with E. coli 9637, 15.6 µg/mL (≈ 45.2 µM); with S. aureus Smith, 0.488 µg/mL (≈ 1.41 µM); against S. aureus 53-180, 0.488 µg/mL (≈ 1.41 µM); with P. vulgaris 6896, greater than 250 µg/mL; against N. catarrhalis 8193, 0.244 µg/mL (≈ 0.707 µM). The MIC against K. pneumoniae 10031 amounted to 1.95 µg/mL (≈ 5.65 µM).
With `Nc1nc(N)c2c(ccc3c2ccn3-c2ccccn2)n1` [Example 83], the MIC in the assay on S. paratyphi 11737 turned out to be 0.976 µg/mL (≈ 3.53 µM); in the assay on E. coli 9637, 0.488 µg/mL (≈ 1.77 µM); with S. aureus Smith, 0.976 µg/mL (≈ 3.53 µM); against S. aureus 53-180, 0.488 µg/mL (≈ 1.77 µM); against P. vulgaris 6896, 0.976 µg/mL (≈ 3.53 µM); with N. catarrhalis 8193, 0.0076 µg/mL (≈ 0.0275 µM). The compound also came in with an MIC against K. pneumoniae 10031 of 0.244 µg/mL (≈ 0.883 µM).
Take `Nc1nc(N)c2c(ccc3c2ccn3-c2ncccn2)n1` [Example 84]: the MIC in the assay on S. paratyphi 11737 is greater than 250 µg/mL; with E. coli 9637, 7.81 µg/mL (≈ 28.2 µM); with S. aureus Smith, 15.6 µg/mL (≈ 56.3 µM); with S. aureus 53-180, 3.9 µg/mL (≈ 14.1 µM); in the assay with P. vulgaris 6896, greater than 250 µg/mL; in the assay on N. catarrhalis 8193, 0.061 µg/mL (≈ 0.22 µM). In the assay on K. pneumoniae 10031, this compound came in with an MIC of 0.976 µg/mL (≈ 3.52 µM).
